Laboratory results reported in US9365522B2, “Pyrazole amide derivative” (AMGEN INC., priority 2015, dated 2016).

Target: T1, ligand binding domain of human ROR gamma (Homo sapiens, UniProt P51449)
T1 construct: NM_001001523; expressed in transfected cells; host or cells: HEK293T
T1 sequence (P51449 247-497 isoform P51449-2): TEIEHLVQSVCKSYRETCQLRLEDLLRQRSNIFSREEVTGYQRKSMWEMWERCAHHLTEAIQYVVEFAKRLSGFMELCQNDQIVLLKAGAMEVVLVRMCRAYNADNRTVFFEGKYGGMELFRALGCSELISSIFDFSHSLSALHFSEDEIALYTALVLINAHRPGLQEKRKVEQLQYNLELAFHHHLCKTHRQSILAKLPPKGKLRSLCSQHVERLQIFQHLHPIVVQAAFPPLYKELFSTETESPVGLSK
Test: ROR gamma reporter gene assay (GAL4-RORγ LBD luciferase, Dual-Glo)
Type: cell-based
Details: HEK293T cells transfected with pM-ROR gamma, 8 concentrations 3.5 nM to 10.5 μM, 24 h incubation; read-out: result (pIC50, inhibition of RORγ transcriptional activity) (converted)
Procedure, shortened: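 First, HEK293T cells are transfected with the GAL4–RORγ LBD construct, a 5×UAS luciferase reporter and a constitutive renilla control. Next, test compounds are added over eight concentrations (3.5 nM to 10.5 μM). After 24 h at 37 °C, Dual-Glo luminescence is measured and pIC50 fitted.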

| Compound | IC50 [pM] |
| --- | --- |
| CCC(C)(C)CN(CC(=O)c1c(Cl)cncc1Cl)C(=O)c1cnn(C23CCC(C(=O)O)(CC2)CC3)c1C(F)(F)F [Example 288, 4-(4-((2-(3,5-dichloropyridin-4-yl)-2-oxoethyl)-(2,2-dimethylbutyl)carbamoyl)-5-(trifluoromethyl)pyrazol-1-yl)bicyclo[2.2.2]octane-1-carboxylic acid] | 11700 |
| CC1(C)[C@@H]2C[C@H](N(CC(N)c3c(F)cccc3Cl)C(=O)c3cnn([C@H]4CC[C@](C)(C(=O)O)CC4)c3C(F)(F)F)C[C@@H]21 (stereo partly drawn) [Example 409, trans-4-(4-((2-amino-2-(2-chloro-6-fluorophenyl)ethyl)((1R,3r,5S)-6,6-dimethylbicyclo[3.1.0]hexan-3-yl)carbamoyl)-5-(trifluoromethyl)-1H-pyrazol-1-yl)-1-methylcyclohexanecarboxylic acid] | 776000 |
| Cc1cncc(Cl)c1C(=O)CN(CC(C)(C)C)C(=O)c1cnn([C@H]2CC[C@](C)(C(=O)O)CC2)c1C(F)(F)F [Example 379, trans-4-(4-((2-(3-chloro-5-methylpyridin-4-yl)-2-oxoethyl)-(2,2-dimethylpropyl)carbamoyl)-5-(trifluoromethyl)pyrazol-1-yl)-1-methylcyclohexane-1-carboxylic acid] | 79400 |
| O=C(CN(C[C@@H]1CCOC1)C(=O)c1cnn([C@H]2CC[C@H](C(=O)O)CC2)c1C(F)(F)F)c1c(Cl)cncc1Cl [Example 38, trans-4-(4-((2-(3,5-dichloropyridin-4-yl)-2-oxoethyl)(((S)-tetrahydrofuran-3-yl)methyl)carbamoyl)-5-(trifluoromethyl)-1H-pyrazol-1-yl)cyclohexanecarboxylic acid] | 1.55e+06 |
| CC1(C)[C@@H]2C[C@H](N(C[C@@](C)(O)c3ccccc3Cl)C(=O)c3cnn([C@H]4CC[C@](C)(C(=O)O)CC4)c3C(F)(F)F)C[C@@H]21 [Example 393, trans-4-(4-((2-(2-chlorophenyl)-2-hydroxypropyl)((1R,3r,5S)-6,6-dimethylbicyclo[3.1.0]hexan-3-yl)carbamoyl)-5-(trifluoromethyl)-1H -pyrazol-1-yl)-1-methylcyclohexanecarboxylic acid] | 4.57e+06 |
| NC(=O)c1cc(Cl)c(C(=O)CN(Cc2cc(F)cc(F)c2)C(=O)c2cnn([C@H]3CC[C@H](C(=O)O)CC3)c2C(F)(F)F)c(Cl)c1 [Example 97, trans-4-(4-((2-(4-carbamoyl-2,6-dichlorophenyl)-2-oxoethyl)-((3,5 difluorophenyl)methyl)carbamoyl)-5-(trifluoromethyl)pyrazol-1-yl)cyclohexane-1-carboxylic acid] | 282000 |
| COc1cccc(Cl)c1[C@@H](O)CN(C(=O)c1cnn([C@H]2CC[C@](C)(C(=O)O)CC2)c1Cl)[C@H]1C[C@@H]2[C@H](C1)C2(C)C [Example 374, trans-4-(5-chloro-4-((2-(2-chloro-6-methoxyphenyl)-2-hydroxyethyl)((1R,3r,5S)-6,6-dimethylbicydo[3.1.0]hexan-3-yl)carbamoyl)-1H-pyrazol-1-yl)-1-methylcyclohexanecarboxylic acid] | 661000 |
| CC(=O)Nc1cccc(Cl)c1C(=O)CN(Cc1cc(F)cc(F)c1)C(=O)c1cnn([C@H]2CC[C@H](C(=O)O)CC2)c1C(F)(F)F [Example 13, trans-4-(4-((2-(2-acetamido-6-chlorophenyl)-2-oxoethyl)(3,5-difluorobenzyl)carbamoyl)-5-(trifluoromethyl)-1H-pyrazol-1-yl)cyclohexanecarboxylic acid] | 93300 |
| C[C@]1(C(=O)O)CC[C@H](n2ncc(C(=O)N(CC(=O)c3c(Cl)cncc3Cl)Cc3cc(F)cc(F)c3)c2C(F)(F)F)CC1 [Example 78, trans-4-(4-((2-(3,5-dichloropyridin-4-yl)-2-oxoethyl)(3,5-difluorobenzyl)carbamoyl)-5-(trifluoromethyl)-1H-pyrazol-1-yl)-1-methylcyclohexanecarboxylic acid] | 10000 |
